Laboratory results as given in patent US20170296491A1, “PHARMACEUTICAL COMPOSITIONS COMPRISING LEVODOPA AMIDE AND USES THEREOF” (priority 2015, published 2017).
Structures can show the parent of a compound that is named as a salt.

Key:
[1] = Effect of preparation method and pH on stability of LDA-HCl/CD formulations; type: physicochemical; conditions: 5 days at room temperature (Table 7)
Description: LDA-HCl/CD formulations were prepared by the following methods, and were then tested for stability. Method 1. Carbidopa (CD, powder) [Teva Pharmaceuticals Ltd., Israel] was added to LDA-HCl solution. […] Precipitation occurred at room temperature. Method 2. Liquid CD formulations were prepared by weighting CD [Teva Pharmaceuticals Ltd., Israel] in a suitable container with different L-arginine [Merck] weights to obtain a final concentration of 0.8% CD (wet form, 0.75% dry form) in different molar ratios to arginine (Table 6). CD formulations were prepared as described in the International Publication No. WO 2010/134074. LDA-HCl (powder) was added to CD solutions to attain the final desired concentration of LDA-HCl/CD formulations. Method 3. CD solutions (40 mg/ml, prepared as described in the International Publication No. WO 2010/134074) were mixed with LDA-HCl solutions to attain the final desired concentration of LDA/CD formulations. The LDA-HCl formulations were prepared by dissolving 200, 160 or 120 mg/ml of LDA-HCl in 40 mM citric buffer. The chemical stability of 7 LDA-HCl/CD formulations was evaluated by HPLC analysis at t0 and after 5 days at room temperature. The recovery after 5 days at room temperature was calculated compared to t0 (Table 7).

[2] = Plasma pharmacokinetics of LDA and LD after oral LDA-HCl with and without CD in rats; type: in vivo; conditions: oral LDA-HCl 25 mg/kg with or without oral 10 mg/kg CD
Description: The purpose of this experiment was to determine the plasma pharmacokinetics of LDA and LD following oral administration of LD or LDA-HCl with and without CD in Wistar rats.
Wistar rats underwent fasting overnight prior to the dosing and received food only 2 hour post-dosing. The method used to dose orally was via oesophagotubage. Solutions were prepared as described above.

[3] = Long term stability of LDA-HCl 200 mg/ml in citric buffer with NAC, 2 weeks at 37° C.; type: physicochemical
Description: Liquid formulation comprising LDA-HCl in citric buffer was prepared by dissolving 200 mg/ml LDA-HCl in 40 mM citric buffer with 0.05% N-acetylcysteine (NAC) as antioxidant. The formulation was incubated for 2 weeks at 37° C. The stability of LDA after 14 days at 37° C. was evaluated by HPLC analysis, and the recovery calculated compared to t0 (Table 5).

[4] = Physical stability of LDA-HCl solutions with or without added CD-Arg formulation; type: physicochemical; conditions: preferably pH >4.6
Description: HCl solutions at 3 different concentrations containing 0.3% Tween 80 were added to LDA to obtain solutions having a final LDA concentration of 200 mg/ml and a molar ratio of 1:0.89, 1:0.92 and 1:0.95 LDA:HCl. CD-Arg formulation (CD:Arg molar ratio 1:1.25) was prepared in Tween 80 0.3% and was added gradually under stirring to 4 volumes of each of the 3 LDA-HCl solutions. The physical stability of the solutions was evaluated (Table 15). As shown, the addition of CD to LDA-HCl solutions yielded stable solutions if added to LDA-HCl solutions having a pH>3.8, preferably pH >4.6.

[5] = Physical stability (visual) of LDA-HCl 50 mg/ml in water or buffers at room temperature; type: physicochemical; conditions: for Color at T = 24 h (RT): 50 mg/ml; for time physically stable at room temperature: 5% LDA-HCl and water or a buffer
Description: (§1) Liquid formulations were prepared by dissolving LDA-HCl, 50 mg/ml in water or different buffers (40 mM) at various pH levels. The physical stability of LDA was determined visually after 24 hours and 7 days (Table 3), and the chemical stability of LDA was determined by HPLC analysis (Table 4) after 24 h at room temperature (RT) and expressed as % recovery compared to t0.

[6] = Chemical stability (HPLC) of LDA-HCl 50 mg/ml in water or buffers after 24 h at room temperature; type: physicochemical
Description: as §1

[7] = Stability of LDA-HCl 50 mg/ml in citrate or phosphate buffer, 4 days at 37° C., HPLC; type: physicochemical
Description: Liquid formulations were prepared by dissolving LDA-HCl, 50 mg/ml in buffer citrate or buffer phosphate at different pH levels (Table 2). The formulations were incubated 4 days at 37° C., their stability was evaluated by HPLC analysis at the end of the fourth day, and the recovery after 4 days at 37° C. was calculated compared to T=0.

[8] = 200 mg/ml LDA-HCl, 40 mM citric buffer, 0.05% NAC

With `C[C@@](Cc1ccc(O)c(O)c1)(NN)C(=O)O` [CD, Carbidopa] as the compound, how does the “chemical stability in LDA-HCl/CD formulations” value [1] read?
The value was “pH-dependent”.

And the “effect of CD on plasma concentration of LD” value [2]?
Its value is “increases”.

What about the “effect of CD on plasma concentrations of LDA” value [2] of the same compound?
The value was “no effect”.

What does the source list for `NC(=O)C(N)Cc1ccc(O)c(O)c1` (stereo not drawn) [LDA-HCl, 2-amino-3-(3,4-dihydroxyphenyl)propanamide]?
LDA content at T = 0 [3, 8]: 18.69; LDA content at T = 2 w, 37° C. [3, 8]: 19.01; time stable ([3]; high concentrations of LDA-HCl and NAC in citric buffer): at least 14 days; pH of LDA-HCl solution at which addition of CD yielded stable solutions [4]: > 3.8; Color at T = 24 h (RT) ([5]; Acetate pH 3.76): light yellow; Color at T = 24 h (RT) ([5]; Acetate pH 4.72): light yellow; Color at T = 24 h (RT) ([5]; Citrate pH 3.09): light yellow; Color at T = 24 h (RT) ([5]; Citrate pH 3.90): light yellow; Color at T = 24 h (RT) ([5]; Citrate pH 4.85): light yellow; Color at T = 24 h (RT) ([5]; Citrate pH 5.65): medium yellow; Color at T = 24 h (RT) ([5]; Histidine pH 6.20): medium yellow; Color at T = 24 h (RT) ([5]; Phosphate pH 6.03): medium yellow; Color at T = 24 h (RT) ([5]; Phosphate pH 6.32): medium yellow; Color at T = 24 h (RT) ([5]; Tartrate pH 3.84): light yellow; Color at T = 24 h (RT) ([5]; Tris pH 5.39): light yellow; Color at T = 24 h (RT) ([5]; Tris pH 6.14): medium yellow; Color at T = 24 h (RT) ([5]; Tris pH 6.61): medium yellow; Color at T = 24 h (RT) ([5]; Water for injection (WFI) pH 3.56): light yellow; Color at T = 24 h (RT) ([5]; Water for injection (WFI) pH 4.14): light yellow; Color at T = 24 h (RT) ([5]; Water for injection (WFI) pH 4.95): light yellow; Color at T = 24 h (RT) ([5]; Water for injection (WFI) pH 5.93): medium yellow; Color at T = 24 h (RT) ([5]; Water for injection (WFI) pH 6.44): medium yellow; Color at T = 24 h (RT) ([5]; Water for injection (WFI) pH 6.91): strong yellow; time physically stable at room temperature ([5]; all conditions tested): 24 h; time physically stable at room temperature ([5]; only formulations having a pH<5.5): at least 7 days; time chemically stable at room temperature ([6]; 5% LDA-HCl and water or a buffer, pH ranging between 3 to 7): at least 24 h; LDA (mg/ml) at T = 0 ([6]; Acetate pH 3.76): 52.09 mg/mL; LDA (mg/ml) at T = 24 hr (RT) ([6]; Acetate pH 3.76): 52.41 mg/mL; LDA (mg/ml) at T = 0 ([6]; Acetate pH 4.72): 52.66 mg/mL; LDA (mg/ml) at T = 24 hr (RT) ([6]; Acetate pH 4.72): 53.05 mg/mL; LDA (mg/ml) at T = 0 ([6]; Citrate pH 3.09): 51.84 mg/mL; LDA (mg/ml) at T = 24 hr (RT) ([6]; Citrate pH 3.09): 52.09 mg/mL; LDA (mg/ml) at T = 0 ([6]; Citrate pH 3.9): 51.34 mg/mL; LDA (mg/ml) at T = 24 hr (RT) ([6]; Citrate pH 3.9): 51.7 mg/mL; LDA (mg/ml) at T = 0 ([6]; Citrate pH 4.85): 52.05 mg/mL; LDA (mg/ml) at T = 24 hr (RT) ([6]; Citrate pH 4.85): 52.75 mg/mL; LDA (mg/ml) at T = 0 ([6]; Citrate pH 5.65): 51.24 mg/mL; LDA (mg/ml) at T = 24 hr (RT) ([6]; Citrate pH 5.65): 51.03 mg/mL; LDA (mg/ml) at T = 0 ([6]; Histidine pH 6.2): 51.27 mg/mL; LDA (mg/ml) at T = 24 hr (RT) ([6]; Histidine pH 6.2): 51.76 mg/mL; LDA (mg/ml) at T = 0 ([6]; Phosphate pH 6.03): 51.32 mg/mL; LDA (mg/ml) at T = 24 hr (RT) ([6]; Phosphate pH 6.03): 51.36 mg/mL; LDA (mg/ml) at T = 0 ([6]; Phosphate pH 6.32): 52.05 mg/mL; LDA (mg/ml) at T = 24 hr (RT) ([6]; Phosphate pH 6.32): 51.82 mg/mL; LDA (mg/ml) at T = 0 ([6]; Tartrate pH 3.84): 52.46 mg/mL; LDA (mg/ml) at T = 24 hr (RT) ([6]; Tartrate pH 3.84): 52.26 mg/mL; LDA (mg/ml) at T = 0 ([6]; Tris pH 5.39): 51.88 mg/mL; LDA (mg/ml) at T = 24 hr (RT) ([6]; Tris pH 5.39): 52.08 mg/mL; LDA (mg/ml) at T = 0 ([6]; Tris pH 6.14): 51.79 mg/mL; LDA (mg/ml) at T = 24 hr (RT) ([6]; Tris pH 6.14): 51.73 mg/mL; LDA (mg/ml) at T = 0 ([6]; Tris pH 6.61): 51.62 mg/mL; LDA (mg/ml) at T = 24 hr (RT) ([6]; Tris pH 6.61): 51.74 mg/mL; LDA (mg/ml) at T = 0 ([6]; WFI pH 3.56): 51.91 mg/mL; LDA (mg/ml) at T = 24 hr (RT) ([6]; WFI pH 3.56): 51.34 mg/mL; LDA (mg/ml) at T = 0 ([6]; WFI pH 4.14): 51.3 mg/mL; LDA (mg/ml) at T = 24 hr (RT) ([6]; WFI pH 4.14): 51.57 mg/mL; LDA (mg/ml) at T = 0 ([6]; WFI pH 4.95): 51.07 mg/mL; LDA (mg/ml) at T = 24 hr (RT) ([6]; WFI pH 4.95): 50.23 mg/mL; LDA (mg/ml) at T = 0 ([6]; WFI pH 5.93): 51.32 mg/mL; LDA (mg/ml) at T = 24 hr (RT) ([6]; WFI pH 5.93): 50.5 mg/mL; LDA (mg/ml) at T = 0 ([6]; WFI pH 6.44): 51.24 mg/mL; LDA (mg/ml) at T = 24 hr (RT) ([6]; WFI pH 6.44): 50.33 mg/mL; LDA (mg/ml) at T = 0 ([6]; WFI pH 6.91): 51.05 mg/mL; LDA (mg/ml) at T = 24 hr (RT) ([6]; WFI pH 6.91): 49.54 mg/mL; stability at 37° C. ([7]; in buffer phosphate at pH>5.7): not stable; time stable at 37° C. ([7]; in citrate buffer): at least 4 days
